Biological target: FLAG-tagged PDE2A1 (amino acids 2-941) (Homo sapiens (Human), UniProt O00408)
Test: IMAP TR-FRET PDE2A enzymatic assay
Type: biochemical
Conditions: 200 nM FAM-cAMP substrate, 11-point half-log dose-response
Excerpt: An IMAP TR-FRET-based phosphodiesterase assay was developed using the PDE2A isoform. IMAP technology is based on high-affinity binding of phosphate by immobilized metal (MIII) coordination complexes on nanoparticles. The IMAP “binding reagent” recognizes phosphate groups on AMP or GMP generated from cAMP or cGMP in a PDE reaction. Cyclic nucleotides that carry a phosphodiester bond and not a free phosphate are not recognized by the binding reagent. The time resolved fluorescence resonance energy transfer (TR-FRET) is afforded by a Terbium (Tb)-Donor pre-bound to the nanoparticles. FRET occurs when the fluorescent-labeled AMP or GMP product of a PDE reaction binds and comes into close proximity to the Tb-Donor complex. Due to the long lifetime of Tb fluorescence, detection can be run in time-resolved mode to reduce or eliminate interference from auto-fluorescent compounds.
The IMAP TR-FRET PDE2A assay was performed in 1536-well white plates. A total of 250 pg per well of FLAG-tagged PDE2A1 (amino acids 2-941) was dispensed in 2.5 μL IMAP assay buffer consisting of 10 mM Tris pH 7.2, 10 mM MgCl2, 1 mM DTT, and 0.1% fatty acid free BSA. 30 nL of compound was then added from 1 mM stocks in DMSO using a Kalypsys Pintool. Plates were incubated for 5 min at room temperature before dispensing 1.5 μL of 533 nM FAM-cAMP substrate for a final concentration of 200 nM. Following a brief centrifugation, plates were incubated for 30 min at room temperature. The assay was terminated by adding 5 μL IMAP binding reagent Tb complex to each well which was prepared according to manufacturer's recommendations (Molecular Devices). Plates were incubated an additional 90 minutes at room temperature and read on a Viewlux plate reader. All compounds were solvated at a concentration of 10 mM in DMSO and tested in 11-point half-log dose-response. Curve fitting and IC50 values were determined using a standard four parameter fit.

Chain of FLAG-tagged PDE2A1 (amino acids 2-941) (O00408 2-941): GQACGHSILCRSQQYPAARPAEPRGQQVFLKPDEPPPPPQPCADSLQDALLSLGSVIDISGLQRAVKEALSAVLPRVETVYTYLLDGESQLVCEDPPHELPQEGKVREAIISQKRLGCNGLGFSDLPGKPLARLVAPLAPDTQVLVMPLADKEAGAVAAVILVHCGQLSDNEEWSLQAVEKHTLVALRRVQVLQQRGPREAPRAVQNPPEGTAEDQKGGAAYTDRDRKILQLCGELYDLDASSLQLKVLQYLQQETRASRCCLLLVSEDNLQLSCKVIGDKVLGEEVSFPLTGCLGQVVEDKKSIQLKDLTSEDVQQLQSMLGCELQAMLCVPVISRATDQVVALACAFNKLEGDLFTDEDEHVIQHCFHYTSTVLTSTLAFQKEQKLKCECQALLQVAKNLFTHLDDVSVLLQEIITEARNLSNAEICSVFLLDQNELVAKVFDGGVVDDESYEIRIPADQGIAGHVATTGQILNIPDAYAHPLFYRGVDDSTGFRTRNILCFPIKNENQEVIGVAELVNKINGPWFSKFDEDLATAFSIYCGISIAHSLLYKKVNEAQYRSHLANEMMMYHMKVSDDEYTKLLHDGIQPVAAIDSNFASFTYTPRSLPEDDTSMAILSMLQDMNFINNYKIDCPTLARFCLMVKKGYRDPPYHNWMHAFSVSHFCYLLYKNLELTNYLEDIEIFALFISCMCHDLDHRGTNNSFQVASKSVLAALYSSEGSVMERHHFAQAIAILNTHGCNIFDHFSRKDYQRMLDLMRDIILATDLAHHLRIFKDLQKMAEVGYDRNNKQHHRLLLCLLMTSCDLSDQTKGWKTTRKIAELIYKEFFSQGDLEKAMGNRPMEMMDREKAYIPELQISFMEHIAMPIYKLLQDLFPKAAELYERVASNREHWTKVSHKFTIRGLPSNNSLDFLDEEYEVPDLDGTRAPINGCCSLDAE

Row | Structure (SMILES) | PDE2 (PIC50)
1 | Cc1cc(C2CCOCC2)n2nc(NCc3cnn(-c4ccccc4)c3)nc2n1 [Example 17, 5-Methyl-7-(oxan-4-yl)-N-[(1-phenyl-1H-pyrazol-4-yl)methyl]-[1,2,4]triazolo[1,5-a]pyrimidin-2-amine] | >7
2 | COc1ccc(CNc2nc3nc(C)cc(C4CCN(C(C)=O)CC4)n3n2)cc1C(F)F [Example 19, 1-{4-[2-({[3-(Difluoromethyl)-4-methoxyphenyl]methyl}amino)-5-methyl-[1,2,4]triazolo[1,5-a]pyrimidin-7-yl]piperidin-1-yl}ethan-1-one] | >7
3 | CC(=O)N1CCC(c2cc(C)nc3nc(NCc4cccc(C(F)F)c4)nn23)CC1 [Example 20, 1-{4-[2-({[3-(Difluoromethyl)phenyl]methyl}amino)-5-methyl-[1,2,4]triazolo[1,5-a]pyrimidin-7-yl]piperidin-1-yl}ethan-1-one] | >7
4 | COc1ccc(CNc2nc3nc(C)cc(C4CCOCC4)n3n2)cc1Cl [Example 21, N-[(3-Chloro-4-methoxyphenyl)methyl]-5-methyl-7-(oxan-4-yl)-[1,2,4]triazolo[1,5-a]pyrimidin-2-amine] | >7
5 | Cc1cc(C2CCOCC2)n2nc(NCc3cccc(C(F)F)c3)nc2n1 [Example 23, N-{[3-(Difluoromethyl)phenyl]methyl}-5-methyl-7-(oxan-4-yl)-[1,2,4]triazolo[1,5-a]pyrimidin-2-amine] | >7
6 | COc1ccc(CNc2nc3nc(C)cc(C4CCOCC4)n3n2)cc1C(F)F [Example 25, N-{[3-(Difluoromethyl)-4-methoxyphenyl]methyl}-5-methyl-7-(oxan-4-yl)-[1,2,4]triazolo[1,5-a]pyrimidin-2-amine] | >7
7 | COc1ccc(CNc2nc3nc(C(F)F)cc(C4CCOCC4)n3n2)cc1 [Example 29, 5-(Difluoromethyl)-N-[(4-methoxyphenyl)methyl]-7-(oxan-4-yl)-[1,2,4]triazolo[1,5-a]pyrimidin-2-amine] | >7
8 | COc1ccc(CNc2nc3nc(CF)cc(C4CCOCC4)n3n2)cc1 [Example 30, 5-(Fluoromethyl)-N-[(4-methoxyphenyl)methyl]-7-(oxan-4-yl)-[1,2,4]triazolo[1,5-a]pyrimidin-2-amine] | >7
9 | COc1cccc(-n2cc(CNc3nc4nc(C)cc(C5CCOCC5)n4n3)cn2)c1 [Example 31, N-{[1-(3-Methoxyphenyl)-1H-pyrazol-4-yl]methyl}-5-methyl-7-(oxan-4-yl)-[1,2,4]triazolo[1,5-a]pyrimidin-2-amine] | >7
10 | Cc1cc(C2CCOCC2)n2nc(NCc3cnn(-c4ccccc4C)c3)nc2n1 [Example 36, 5-Methyl-N-{[1-(2-methylphenyl)-1H-pyrazol-4-yl]methyl}-7-(oxan-4-yl)-[1,2,4]triazolo[1,5-a]pyrimidin-2-amine] | >7
11 | Cc1cc(C2CCOCC2)n2nc(NCc3cc(-c4ccccc4)no3)nc2n1 [Example 37, 5-Methyl-7-(oxan-4-yl)-N-[(3-phenyl-1,2-oxazol-5-yl)methyl]-[1,2,4]triazolo[1,5-a]pyrimidin-2-amine] | >7
12 | COc1ccc(CNc2nc3nc(C)cc(C4CCCOC4)n3n2)cc1 (centres unmarked) [Example 38, N-[(4-Methoxyphenyl)methyl]-5-methyl-7-(oxan-3-yl)-[1,2,4]triazolo[1,5-a]pyrimidin-2-amine] | >7
13 | Cc1cc(C2CCOCC2)n2nc(NCc3cccc(Br)c3)nc2n1 [Example 39, N-[(3-Bromophenyl)methyl]-5-methyl-7-(oxan-4-yl)-[1,2,4]triazolo[1,5-a]pyrimidin-2-amine] | >7
14 | Cc1cc(C2CCOCC2)n2nc(NCc3cccc(Cl)c3)nc2n1 [Example 40, N-[(3-Chlorophenyl)methyl]-5-methyl-7-(oxan-4-yl)-[1,2,4]triazolo[1,5-a]pyrimidin-2-amine] | >7
15 | Cc1cc(C2CCOCC2)n2nc(NCc3cccc(C(F)(F)F)c3)nc2n1 [Example 41, 5-Methyl-7-(oxan-4-yl)-N-{[3-(trifluoromethyl)phenyl]methyl}-[1,2,4]triazolo[1,5-a]pyrimidine-2-amine] | >7
16 | Cc1cc(C2CCOCC2)n2nc(NCc3ccc4c(c3)CCO4)nc2n1 [Example 42, N-(2,3-Dihydro-1-benzofuran-5-ylmethyl)-5-methyl-7-(oxan-4-yl)-[1,2,4]triazolo[1,5-a]pyrimidin-2-amine] | >7

Same assay, conditions: 200 nM FAM-cAMP substrate, 11-point half-log dose-response, read-out: PDE2 (PIC50)

Row | Structure (SMILES) | IC50
17 | COc1ccc(CNc2nc3nc(C)cc(C4CCN(C(C)=O)CC4)n3n2)cc1 [Example 18, 1-[4-(2-[(4-Methoxyphenyl)methyl]amino-5-methyl-[1,2,4]triazolo[1,5-a]pyrimidin-7-yl)piperidin-1-yl]ethan-1-one] | 100 to 1000 nM
18 | COc1ccc(CNc2nc3nc(C)cc(C4CCC(F)(F)CC4)n3n2)cc1 [Example 22, 7-(4,4-Difluorocyclohexyl)-N-[(4-methoxyphenyl)methyl]-5-methyl-[1,2,4]triazolo[1,5-a]pyrimidin-2-amine] | 100 to 1000 nM
19 | COc1cccc(CNc2nc3nc(C)cc(C4CCOCC4)n3n2)c1 [Example 24, N-[(3-Methoxyphenyl)methyl]-5-methyl-7-(oxan-4-yl)-[1,2,4]triazolo[1,5-a]pyrimidin-2-amine] | 100 to 1000 nM
20 | Cc1cc(C2CCOCC2)n2nc(NCc3ccccc3F)nc2n1 [Example 26, N-[(2-Fluorophenyl)methyl]-5-methyl-7-(oxan-4-yl)-[1,2,4]triazolo[1,5-a]pyrimidin-2-amine] | 100 to 1000 nM
21 | Cc1ccc(F)c(CNc2nc3nc(C)cc(C4CCOCC4)n3n2)c1 [Example 27, N-[(2-Fluoro-5-methylphenyl)methyl]-5-methyl-7-(oxan-4-yl)-[1,2,4]triazolo[1,5-a]pyrimidin-2-amine] | 100 to 1000 nM
22 | Cc1cccc(CNc2nc3nc(C)cc(C4CCOCC4)n3n2)c1 [Example 28, 5-Methyl-N-[(3-methylphenyl)methyl]-7-(oxan-4-yl)-[1,2,4]triazolo[1,5-a]pyrimidin-2-amine] | 100 to 1000 nM
23 | COc1ccc(F)c(CNc2nc3nc(C)cc(C4CCOCC4)n3n2)c1 [Example 32, N-[(2-Fluoro-5-methoxyphenyl)methyl]-5-methyl-7-(oxan-4-yl)-[1,2,4]triazolo[1,5-a]pyrimidin-2-amine] | 100 to 1000 nM
24 | Cc1cc(C2CCOCC2)n2nc(NCc3ccccc3)nc2n1 [Example 33, N-Benzyl-5-methyl-7-(oxan-4-yl)-[1,2,4]triazolo[1,5-a]pyrimidin-2-amine] | 100 to 1000 nM
25 | COc1ccc(CNc2nc3nc(C)cc(C4(C)CCOCC4)n3n2)cc1 [Example 34, N-[(4-Methoxyphenyl)methyl]-5-methyl-7-(4-methyloxan-4-yl)-[1,2,4]triazolo[1,5-a]pyrimidin-2-amine] | 100 to 1000 nM
26 | Cc1cc(CNc2nc3nc(C)cc(C4CCOCC4)n3n2)ccn1 [Example 35, 5-Methyl-N-[(2-methylpyridin-4-yl)methyl]-7-(oxan-4-yl)-[1,2,4]triazolo[1,5-a]pyrimidin-2-amine] | 100 to 1000 nM

Reference: patent US10239882B2, “Substituted 5-methyl-[1,2,4]triazolo[1,5-a]pyrimidin-2-amine compounds as PDE2 inhibitors” (DART NEUROSCIENCE (CAYMAN) LTD., priority 2014, dated 2019)
